Experimental data as given in patent publication US12209086B2, “FGFR3 inhibitor compounds” (ELI LILLY AND COMPANY, priority 2021, dated 2025).

What follows are molecules tested against T1, FGFR3 protein (Homo sapiens, UniProt P22607) (assay: FGFR3 enzyme assay (KinEASE-TK HTRF kinase assay)). Conditions: 0.25 nM enzyme, ATP at Km, 15 min pre-incubation on ice, 30 min at 30° C.
T1 construct: purchased Reaction Biology 1068
Assay type: biochemical
Protocol: FGFR3 and FGFR1 Enzyme Assay
Enzyme activity was monitored using the KinEASE™-TK Assay Kit (Cisflio, Cat. No. 62TK0PEC) according to the manufacturer's instructions. All assays were performed at the respective KmATP for each kinase in KinEASE™ Kinase Buffer.
Titration of compounds were performed in a half-log manner in 100% dimethyl sulfoxide (DMSO) starting at 1 uM. Prior to the initiation of the reaction by adenosine triphosphate (ATP), FGFR1 protein and compounds were pre-incubated for 15 minutes at room temperature, and FGFR3 protein and compounds were pre-incubated on ice for 15 minutes. Reactions proceeded for 30 min at 30° C. Plates were quenched by the addition of the Anti-TK cryptate antibody/Streptavidin-XL665 mixture.
Ratios were converted to a percent of control (POC) using a ratiometric emission factor. One hundred POC was determined using no test compound, and 0 POC was determined in the presence of 1 uM of an appropriate control inhibitor.

T1 sequence (P22607 23-806): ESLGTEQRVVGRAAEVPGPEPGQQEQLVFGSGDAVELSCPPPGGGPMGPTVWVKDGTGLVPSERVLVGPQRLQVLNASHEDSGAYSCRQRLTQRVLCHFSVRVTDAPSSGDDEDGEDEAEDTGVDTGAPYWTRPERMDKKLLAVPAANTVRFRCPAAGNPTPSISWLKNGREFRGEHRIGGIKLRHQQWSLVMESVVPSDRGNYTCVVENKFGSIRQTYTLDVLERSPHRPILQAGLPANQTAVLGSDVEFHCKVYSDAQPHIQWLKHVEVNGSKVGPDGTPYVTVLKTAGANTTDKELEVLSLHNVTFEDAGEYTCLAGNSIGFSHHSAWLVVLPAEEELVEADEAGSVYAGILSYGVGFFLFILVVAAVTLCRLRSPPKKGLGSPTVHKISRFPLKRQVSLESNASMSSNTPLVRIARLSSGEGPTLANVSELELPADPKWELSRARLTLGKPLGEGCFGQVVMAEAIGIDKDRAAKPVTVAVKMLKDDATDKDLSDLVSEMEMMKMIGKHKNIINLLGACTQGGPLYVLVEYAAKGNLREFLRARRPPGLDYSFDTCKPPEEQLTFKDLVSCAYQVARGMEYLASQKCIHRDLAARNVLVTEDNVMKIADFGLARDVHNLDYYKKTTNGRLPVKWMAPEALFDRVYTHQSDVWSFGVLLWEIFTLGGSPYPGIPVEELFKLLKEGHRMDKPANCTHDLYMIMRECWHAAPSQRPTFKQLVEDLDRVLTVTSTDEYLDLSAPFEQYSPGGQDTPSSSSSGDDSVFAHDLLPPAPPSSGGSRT

**Q.** Which IC50 does the source give for `Cc1c(-c2cc(N[C@H](C)c3ccccn3)c3c(C#N)cnn3c2)cnn1C1CCN(C2CN(C#N)C2(C)C)CC1` (single isomer, unassigned) [Example 94] here?
**A.** The IC50 was under 50 nM.

**Q.** For `Cc1c(-c2cc(OC(C)c3cncc(C(F)(F)F)n3)n3c(C#N)cnc3c2)nnn1C1CCN(C#N)CC1` (single isomer, unassigned) [Example 99, 7-[1-(1-Cyano-4-piperidyl)-5-methyl-triazol-4-yl]-5-[1-[6-(trifluoromethyl)pyrazin-2-yl]ethoxy]imidazo [1,2-a]pyridine-3-carbonitrile], which IC50 is on record?
**A.** The IC50 was under 50 nM.

**Q.** How did the IC50 turn out when `Cc1c(-c2cc(OC(C)c3ccccc3-c3ccon3)n3c(C#N)cnc3c2)nnn1C1CCN(C#N)CC1` (single isomer, unassigned) [Example 142, 7-[1-(1-Cyano-4-piperidyl)-5-methyl-triazol-4-yl]-5-[1-(2-isoxazol-3-ylphenyl)ethoxy] imidazo [1,2-a]pyridine-3-carbonitrile] was run?
**A.** The IC50 was under 100 nM.

**Q.** With `Cc1c(-c2cc(OC(CO)c3ccc(F)cn3)c3c(Cl)cnn3c2)nnn1C1CC(N2CCN(C#N)CC2)C1` (single isomer, unassigned) [Example 152, Cis-4-[3-[4-[3-Chloro-4-[1-(5-fluoro-2-pyridyl)-2-hydroxy-ethoxy]pyrazolo[1,5-a]pyridin-6-yl]-5-methyl-triazol-1-yl]cyclobutyl] piperazine-1-carbonitrile] as the molecule, how does the IC50 read?
**A.** The IC50 was under 50 nM.

**Q.** For `Cc1c(-c2cc(OCC(O)c3ccc(F)cn3)c3c(Cl)cnn3c2)nnn1C1CCN(C#N)CC1` (single isomer, unassigned) [Example 154, 4-[4-[3-Chloro-4-[2-(5-fluoro-2-pyridyl)-2-hydroxy-ethoxy]pyrazolo[1,5-a]pyridin-6-yl]-5-methyl-triazol-1-yl]piperidine-1-carbonitrile], which IC50 is on record?
**A.** Its IC50 is under 50 nM.

**Q.** `Cc1c(-c2cc(OCC(O)c3ccc(F)cn3)c3c(Cl)cnn3c2)nnn1C1CCN(C#N)CC1` (single isomer, unassigned) [Example 155, 4-[4-[3-Chloro-4-[2-(5-fluoro-2-pyridyl)-2-hydroxy-ethoxy]pyrazolo[1,5-a]pyridin-6-yl]-5-methyl-triazol-1-yl]piperidine-1-carbonitrile] was tested. Which IC50 did it give?
**A.** Its IC50 is under 50 nM.

**Q.** `Cc1c(-c2cc(OCC(C)(O)c3ccc(F)cn3)c3c(Cl)cnn3c2)nnn1C1CCN(C#N)CC1` (single isomer, unassigned) [Example 156, 4-[4-[3-Chloro-4-[2-(5-fluoro-2-pyridyl)-2-hydroxy-propoxy]pyrazolo[1,5-a]pyridin-6-yl]-5-methyl-triazol-1-yl]piperidine-1-carbonitrile] was tested. Which IC50 did it give?
**A.** The IC50 was under 50 nM.

**Q.** Which IC50 does the source give for `Cc1c(-c2cc(OCC(C)(O)c3ccc(F)cn3)c3c(F)cnn3c2)nnn1C1CCN(C#N)CC1` (single isomer, unassigned) [Example 157, 4-[4-[3-Fluoro-4-[2-(5-fluoro-2-pyridyl)-2-hydroxy-propoxy]pyrazolo[1,5-a]pyridin-6-yl]-5-methyl-triazol-1-yl]piperidine-1-carbonitrile] here?
**A.** The IC50 was under 50 nM.

**Q.** How did the IC50 turn out when `COc1cc(-c2cnn(C3CCN(C4CN(C#N)C4(C)C)CC3)c2C)cn2ncc(C#N)c12` (single isomer, unassigned) [Example 173, 3-[4-(4-[3-Cyano-4-methoxypyrazolo[1,5-a]pyridin-6-yl]-5-methylpyrazol-1-yl)piperidin-1-yl]-2,2-dimethylazetidine-1-carbonitrile] was run?
**A.** The IC50 was under 50 nM.

**Q.** Which IC50 does the source give for `COc1cc(-c2cnn(C3CN(C4CCN(C#N)CC4(F)F)C3)c2C)cn2ncc(C#N)c12` (single isomer, unassigned) [Example 179, 4-[3-(4-[3-Cyano-4-methoxypyrazolo[1,5-a]pyridin-6-yl]-5-methylpyrazol-1-yl)azetidin-1-yl]-3,3-difluoropiperidine-1-carbonitrile] here?
**A.** Its IC50 is under 50 nM.

**Q.** Which IC50 does the source give for `Cc1c(-c2cc(OC(c3ccccn3)C(C)(C)C)n3c(C#N)cnc3c2)nnn1C1CCN(C#N)CC1` (single isomer, unassigned) [Example 264, 7-[1-(1-Cyano-4-piperidyl)-5-methyl-triazol-4-yl]-5-[2,2-dimethyl-1-(2-pyridyl)propoxy] imidazo[1,2-a]pyridine-3-carbonitrile] here?
**A.** The IC50 was under 100 nM.
